Assay results as given in PMC5326599 (Antiviral research, 2017).
“And” between values parts separate entries of the source, which are not always exact repeats. Equal entries are not always repeated. Marks after values point to notes of the source that are not given here.

Legend:
[1] = test system: A/Udorn/72 (H3N2) virus (M2-WT); experiment: microbe, parasite or virus in culture; type: cell-based; conditions: Influenza A virus, H3N2, MDCK, read-out: Antiviral Efficacy EC50, A/Udorn/72 (H3N2) M2-WT
[2] = test system: influenza A/Solomon Islands/3/2006 (H1N1) virus; design: species or system BALB/c mice; conditions: mouse, in vivo
[3] = test system: MDCK cells; conditions: read-out: Cytotoxicity CC50, neutral red, 24 h
[4] = mouse, in vivo

Structure (SMILES) | EC50 [1] | MDD ± SD (mean day of death) [2] | Survivors/Total [2] | survival rate / protection [2] | CC50 [3] | body weight difference compared to placebos and normal control animals [4] | tolerability [4]
NC12CC3CC(CC(C3)C1)C2 [Amantadine (1), amantadine] | […] | 13.0 ± 6.4 days and 9.4 ± 1.9 days | […] | […] |  |  | 
NC1CCC2(CC1)C1CC3CC(C1)CC2C3 (stereo not drawn) [Compound 3, spiroadamantane amine] |  |  | 7/10^*** and 1/10 and 0/10 | 70% | 27.6 ± 0.5 µM | 3% | well tolerated
